In patent US8252832B2, “Kinesin inhibitors as cancer therapeutics” (Novartis AG, priority 2007, dated 2012):
Read-outs that look alike come from different tables or passages of the source.

System: panel of cell lines and tumor explants
Experiment: Soft agar (clonogenic) assay on cell lines and tumor explants
Assay type: cell-based, human
Set-up: key to Differential: panel average log(GI50) minus sample log(GI50); positive = more sensitive
Conditions: for Differential: average log(GI50) 0.236 minus log(GI50); for GI50: Homo sapiens
Experimental: Compound IIa was tested against a panel of cell lines and tumor explants in a soft agar assay as described in Fiebig, H. H., Maier, A., and Burger, A. M. (Clonogenic assay with established human tumour xenorafts: correlation of in vitro to in vivo activity as a basis for anticancer drug discovery, Eur. J. Cancer 40, 802-820 (2004).) Table 16 lists the type of cancer, the name of the sample, its GI50 (concentration needed to achieve 50% growth inhibition) value in the assay, the logarithm of the GI50 (log(GI50), and the relative sensitivity of each sample (Differential). The differential is calculated by subtracting the log(GI50) for each cell line from the average log(GI50) across the entire panel (0.236 in this case); a positive value indicates a sample that is more sensitive than average, whereas a negative value indicates a sample that is less sensitive than average.

## CC(C)(C)[C@H](c1nc(-c2cc(F)ccc2F)cn1Cc1ccccc1)N(CC[C@H](N)CF)C(=O)CO [Compound IIa]
Bladder, sample 439
  Differential: −0.764
Bladder, sample 1036
  Differential: 1.176
Bladder, sample 1218
  Differential: 0.530
Bladder, sample 1228
  Differential: 0.738
Bladder, sample 1258
  Differential: −0.996
Bladder, sample 1352
  Differential: 0.249
Breast, sample 401
  Differential: 0.486
Breast, sample 449
  Differential: 0.509
Breast, sample 574
  Differential: −0.764
Breast, sample 583
  Differential: 0.858
Breast, sample 713
  Differential: 0.849
Breast, sample 857
  Differential: −0.154
Breast, sample 1162
  Differential: 0.780
Breast, sample 1322
  Differential: 0.090
Breast, sample 1384
  Differential: −0.189
Breast, sample 1398
  Differential: 0.858
Colorectal, sample 94LX
  Differential: −1.054
Colorectal, sample 158
  Differential: −0.764
Colorectal, sample 233
  Differential: 0.860
Colorectal, sample 243
  Differential: −0.764
Colorectal, sample 260
  Differential: −0.764
Colorectal, sample 268
  Differential: −0.559
Colorectal, sample 280
  Differential: −0.764
Colorectal, sample 504
  Differential: 0.800
Colorectal, sample 533
  Differential: −0.007
Colorectal, sample 609
  Differential: −0.764
Colorectal, sample 647
  Differential: −0.764
Colorectal, sample 676
  Differential: −0.764
Colorectal, sample 742
  Differential: −0.036
Colorectal, sample 975
  Differential: −0.764
Colorectal, sample 1034
  Differential: 0.906
Colorectal, sample 1044
  Differential: 0.450
Colorectal, sample 1103
  Differential: 0.236
Colorectal, sample 1297
  Differential: −0.764
Colorectal, sample 1299
  Differential: −0.764
Colorectal, sample 1729
  Differential: −0.764
Colorectal, sample 1753
  Differential: −0.816
Colorectal, sample 1783
  Differential: 0.378
Colorectal, sample 1784
  Differential: −0.539
Colorectal, sample 1788
  Differential: −0.115
Gastric, sample 209
  Differential: −0.764
Gastric, sample 214
  Differential: −0.718
Gastric, sample 1172
  Differential: −0.764
22Rv1, Prostate, sample 22RV1, GI50 in nM, read-out: log(GI50) (converted)
  GI50: 0.537 nM
22Rv1, Prostate, sample 22RV1, read-out: GI50
  GI50: 0.537 nM
Bladder, sample 439, GI50 in nM, read-out: log(GI50) (converted)
  GI50: ≥ 10 nM
Bladder, sample 439, read-out: GI50
  GI50: 10 nM
Bladder, sample 1036, GI50 in nM, read-out: log(GI50) (converted)
  GI50: 0.115 nM
Bladder, sample 1036, read-out: GI50
  GI50: 0.115 nM
Bladder, sample 1218, GI50 in nM, read-out: log(GI50) (converted)
  GI50: 0.509 nM
Bladder, sample 1218, read-out: GI50
  GI50: 0.509 nM
Bladder, sample 1228, GI50 in nM, read-out: log(GI50) (converted)
  GI50: 0.315 nM
Bladder, sample 1228, read-out: GI50
  GI50: 0.315 nM
Bladder, sample 1258, GI50 in nM, read-out: log(GI50) (converted)
  GI50: 17.1 nM
Bladder, sample 1258, read-out: GI50
  GI50: 17.1 nM
Bladder, sample 1352, GI50 in nM, read-out: log(GI50) (converted)
  GI50: 0.973 nM
Bladder, sample 1352, read-out: GI50
  GI50: 0.972 nM
Breast, sample 401, GI50 in nM, read-out: log(GI50) (converted)
  GI50: 0.564 nM
Breast, sample 401, read-out: GI50
  GI50: 0.563 nM
Breast, sample 449, GI50 in nM, read-out: log(GI50) (converted)
  GI50: 0.535 nM
Breast, sample 449, read-out: GI50
  GI50: 0.534 nM
Breast, sample 574, GI50 in nM, read-out: log(GI50) (converted)
  GI50: ≥ 10 nM
Breast, sample 574, read-out: GI50
  GI50: 10 nM
Breast, sample 583, GI50 in nM, read-out: log(GI50) (converted)
  GI50: 0.239 nM
Breast, sample 583, read-out: GI50
  GI50: 0.239 nM
Breast, sample 713, GI50 in nM, read-out: log(GI50) (converted)
  GI50: 0.244 nM
Breast, sample 713, read-out: GI50
  GI50: 0.244 nM
Breast, sample 857, GI50 in nM, read-out: log(GI50) (converted)
  GI50: 2.45 nM
Breast, sample 857, read-out: GI50
  GI50: 2.46 nM
Breast, sample 1162, GI50 in nM, read-out: log(GI50) (converted)
  GI50: 0.286 nM
Breast, sample 1162, read-out: GI50
  GI50: 0.286 nM
Breast, sample 1322, GI50 in nM, read-out: log(GI50) (converted)
  GI50: 1.4 nM
Breast, sample 1322, read-out: GI50
  GI50: 1.4 nM
Breast, sample 1384, GI50 in nM, read-out: log(GI50) (converted)
  GI50: 2.67 nM
Breast, sample 1384, read-out: GI50
  GI50: 2.67 nM
Breast, sample 1398, GI50 in nM, read-out: log(GI50) (converted)
  GI50: 0.239 nM
Breast, sample 1398, read-out: GI50
  GI50: 0.239 nM
CCRF-CEM, Leukemia (ALL), sample CCRFCEM, GI50 in nM, read-out: log(GI50) (converted)
  GI50: 0.287 nM
CCRF-CEM, Leukemia (ALL), sample CCRFCEM, read-out: GI50
  GI50: 0.287 nM
Colorectal, sample 94LX, GI50 in nM, read-out: log(GI50) (converted)
  GI50: 19.5 nM
Colorectal, sample 94LX, read-out: GI50
  GI50: 19.5 nM
Colorectal, sample 158, GI50 in nM, read-out: log(GI50) (converted)
  GI50: ≥ 10 nM
Colorectal, sample 158, read-out: GI50
  GI50: 10 nM
Colorectal, sample 233, GI50 in nM, read-out: log(GI50) (converted)
  GI50: 0.238 nM
Colorectal, sample 233, read-out: GI50
  GI50: 0.238 nM
Colorectal, sample 243, GI50 in nM, read-out: log(GI50) (converted)
  GI50: ≥ 10 nM
Colorectal, sample 243, read-out: GI50
  GI50: 10 nM
Colorectal, sample 260, GI50 in nM, read-out: log(GI50) (converted)
  GI50: ≥ 10 nM
Colorectal, sample 260, read-out: GI50
  GI50: 10 nM
Colorectal, sample 268, GI50 in nM, read-out: log(GI50) (converted)
  GI50: 6.24 nM
Colorectal, sample 268, read-out: GI50
  GI50: 6.24 nM
Colorectal, sample 280, GI50 in nM, read-out: log(GI50) (converted)
  GI50: ≥ 10 nM
Colorectal, sample 280, read-out: GI50
  GI50: 10 nM
Colorectal, sample 504, GI50 in nM, read-out: log(GI50) (converted)
  GI50: 0.273 nM
Colorectal, sample 504, read-out: GI50
  GI50: 0.273 nM
Colorectal, sample 533, GI50 in nM, read-out: log(GI50) (converted)
  GI50: 1.75 nM
Colorectal, sample 533, read-out: GI50
  GI50: 1.75 nM
Colorectal, sample 609, GI50 in nM, read-out: log(GI50) (converted)
  GI50: ≥ 10 nM
Colorectal, sample 609, read-out: GI50
  GI50: 10 nM
Colorectal, sample 647, GI50 in nM, read-out: log(GI50) (converted)
  GI50: ≥ 10 nM
Colorectal, sample 647, read-out: GI50
  GI50: 10 nM
Colorectal, sample 676, GI50 in nM, read-out: log(GI50) (converted)
  GI50: ≥ 10 nM
Colorectal, sample 676, read-out: GI50
  GI50: 10 nM
Colorectal, sample 742, GI50 in nM, read-out: log(GI50) (converted)
  GI50: 1.87 nM
Colorectal, sample 742, read-out: GI50
  GI50: 1.87 nM
Colorectal, sample 975, GI50 in nM, read-out: log(GI50) (converted)
  GI50: ≥ 10 nM
Colorectal, sample 975, read-out: GI50
  GI50: 10 nM
Colorectal, sample 1034, GI50 in nM, read-out: log(GI50) (converted)
  GI50: 0.214 nM
Colorectal, sample 1034, read-out: GI50
  GI50: 0.214 nM
Colorectal, sample 1044, GI50 in nM, read-out: log(GI50) (converted)
  GI50: 0.612 nM
Colorectal, sample 1044, read-out: GI50
  GI50: 0.612 nM
Colorectal, sample 1103, GI50 in nM, read-out: log(GI50) (converted)
  GI50: 1 nM
Colorectal, sample 1103, read-out: GI50
  GI50: 1 nM
Colorectal, sample 1297, GI50 in nM, read-out: log(GI50) (converted)
  GI50: ≥ 10 nM
Colorectal, sample 1297, read-out: GI50
  GI50: 10 nM
Colorectal, sample 1299, GI50 in nM, read-out: log(GI50) (converted)
  GI50: ≥ 10 nM
Colorectal, sample 1299, read-out: GI50
  GI50: 10 nM
Colorectal, sample 1729, GI50 in nM, read-out: log(GI50) (converted)
  GI50: ≥ 10 nM
Colorectal, sample 1729, read-out: GI50
  GI50: 10 nM
Colorectal, sample 1753, GI50 in nM, read-out: log(GI50) (converted)
  GI50: 11.3 nM
Colorectal, sample 1753, read-out: GI50
  GI50: 11.3 nM
Colorectal, sample 1783, GI50 in nM, read-out: log(GI50) (converted)
  GI50: 0.721 nM
Colorectal, sample 1783, read-out: GI50
  GI50: 0.721 nM
Colorectal, sample 1784, GI50 in nM, read-out: log(GI50) (converted)
  GI50: 5.97 nM
Colorectal, sample 1784, read-out: GI50
  GI50: 5.97 nM
Colorectal, sample 1788, GI50 in nM, read-out: log(GI50) (converted)
  GI50: 2.24 nM
Colorectal, sample 1788, read-out: GI50
  GI50: 2.25 nM
DU-145, Prostate, sample DU145, GI50 in nM, read-out: log(GI50) (converted)
  GI50: 1 nM
DU-145, Prostate, sample DU145, read-out: GI50
  GI50: 1 nM
Gastric, sample 209, GI50 in nM, read-out: log(GI50) (converted)
  GI50: ≥ 10 nM
Gastric, sample 209, read-out: GI50
  GI50: 10 nM
Gastric, sample 214, GI50 in nM, read-out: log(GI50) (converted)
  GI50: 8.99 nM
Gastric, sample 214, read-out: GI50
  GI50: 9 nM
Gastric, sample 1172, GI50 in nM, read-out: log(GI50) (converted)
  GI50: ≥ 10 nM
Gastric, sample 1172, read-out: GI50
  GI50: 10 nM
Jurkat, Leukemia (ALL), sample JURKAT, GI50 in nM, read-out: log(GI50) (converted)
  GI50: 0.106 nM
Jurkat, Leukemia (ALL), sample JURKAT, read-out: GI50
  GI50: 0.106 nM
K562, Leukemia (CML), sample K562, GI50 in nM, read-out: log(GI50) (converted)
  GI50: 0.27 nM
K562, Leukemia (CML), sample K562, read-out: GI50
  GI50: 0.27 nM
MOLT-4, Leukemia (ALL), sample MOLT4, GI50 in nM, read-out: log(GI50) (converted)
  GI50: 0.877 nM
